In PubChem BioAssay (NCI):
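Cells were grown in 96-well plates and exposed to each compound for 48 hours at five concentrations; endpoints were interpolated linearly between bracketing concentrations, or set to the highest concentration if not reached. TGI: total growth inhibition.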

Experiments:
Experiment in all cases: NCI anticancer screen, dose series, 48 h
786-0 renal = tested on: 786-0 renal
A498 renal = tested on: A498 renal
ACHN renal = tested on: ACHN renal
BT-549 breast = tested on: BT-549 breast
CAKI-1 renal = tested on: CAKI-1 renal
CCRF-CEM leukemia = tested on: CCRF-CEM leukemia
COLO 205 colon = tested on: COLO 205 colon
DU-145 prostate = tested on: DU-145 prostate
EKVX NSCLC = tested on: EKVX NSCLC
HCC-2998 colon = tested on: HCC-2998 colon
HCT-116 colon = tested on: HCT-116 colon
HCT-15 colon = tested on: HCT-15 colon
HL-60(TB) leukemia = tested on: HL-60(TB) leukemia
HOP-62 NSCLC = tested on: HOP-62 NSCLC
HOP-92 NSCLC = tested on: HOP-92 NSCLC
HS 578T breast = tested on: HS 578T breast
HT29 colon = tested on: HT29 colon
IGROV1 ovarian = tested on: IGROV1 ovarian
K-562 leukemia = tested on: K-562 leukemia
KM12 colon = tested on: KM12 colon
LOX IMVI melanoma = tested on: LOX IMVI melanoma
M14 melanoma = tested on: M14 melanoma
MALME-3M melanoma = tested on: MALME-3M melanoma
MCF7 breast = tested on: MCF7 breast
MDA-MB-435 = tested on: MDA-MB-435
MDA-N = tested on: MDA-N
MOLT-4 leukemia = tested on: MOLT-4 leukemia
NCI-H23 lung = tested on: NCI-H23 lung
NCI-H460 lung = tested on: NCI-H460 lung
NCI-H522 lung = tested on: NCI-H522 lung
NCI/ADR-RES ovarian = tested on: NCI/ADR-RES ovarian
OVCAR-3 ovarian = tested on: OVCAR-3 ovarian
OVCAR-5 ovarian = tested on: OVCAR-5 ovarian
OVCAR-8 ovarian = tested on: OVCAR-8 ovarian
PC-3 prostate = tested on: PC-3 prostate
RPMI-8226 leukemia = tested on: RPMI-8226 leukemia
RXF 393 renal = tested on: RXF 393 renal
SF-268 CNS = tested on: SF-268 CNS
SF-539 CNS = tested on: SF-539 CNS
SK-MEL-2 melanoma = tested on: SK-MEL-2 melanoma
SK-MEL-28 melanoma = tested on: SK-MEL-28 melanoma
SK-MEL-5 melanoma = tested on: SK-MEL-5 melanoma
SK-OV-3 ovarian = tested on: SK-OV-3 ovarian
SN12C renal = tested on: SN12C renal
SNB-19 CNS = tested on: SNB-19 CNS
SNB-75 CNS = tested on: SNB-75 CNS
SR leukemia = tested on: SR leukemia
SW-620 colon = tested on: SW-620 colon
T-47D breast = tested on: T-47D breast
UACC-257 melanoma = tested on: UACC-257 melanoma
UACC-62 melanoma = tested on: UACC-62 melanoma
UO-31 renal = tested on: UO-31 renal
A549 NSCLC = tested on: A549 NSCLC
MDA-MB-231 breast = tested on: MDA-MB-231 breast
NCI-H226 lung = tested on: NCI-H226 lung
OVCAR-4 ovarian = tested on: OVCAR-4 ovarian
SF-295 CNS = tested on: SF-295 CNS
TK-10 renal = tested on: TK-10 renal
U251 CNS = tested on: U251 CNS

Measured: TGI

CCCSc1ccc2[nH]c(N3C(=O)/C(=C/c4ccc(O)c(OC)c4)N=C3c3ccccc3)cc2c1
32 µM: HCT-15 colon
14.1 µM: HCC-2998 colon
35.2 µM: M14 melanoma
10.1 µM: NCI-H460 lung
61.5 µM: NCI-H23 lung
84 µM: MALME-3M melanoma
44.3 µM: OVCAR-5 ovarian
46.4 µM: BT-549 breast
14.3 µM: HS 578T breast
16.1 µM: SK-MEL-5 melanoma
76.3 µM: SK-OV-3 ovarian
2730 nM: SK-MEL-2 melanoma
93.8 µM: CCRF-CEM leukemia
19.5 µM: COLO 205 colon
67.4 µM: EKVX NSCLC
88.9 µM: HT29 colon
93 µM: A498 renal
20.8 µM: MOLT-4 leukemia
49 µM: SF-539 CNS
51.8 µM: UACC-257 melanoma
50.4 µM: SN12C renal
34.3 µM: RPMI-8226 leukemia
11.6 µM: HL-60(TB) leukemia
24.3 µM: NCI-H522 lung
5.26 µM: MDA-N
19.8 µM: UACC-62 melanoma
not listed: A549 NSCLC | MDA-MB-231 breast | NCI-H226 lung | OVCAR-4 ovarian | SF-295 CNS | TK-10 renal | U251 CNS
> 100 µM: all other assays above

COC(=O)C12CCCN1CCC2
> 100000 nM: SK-MEL-2 melanoma
not listed: A498 renal | HL-60(TB) leukemia | HOP-92 NSCLC | HS 578T breast | IGROV1 ovarian | OVCAR-8 ovarian | RPMI-8226 leukemia | SF-539 CNS
> 100 µM: all other assays above
